The numbers were not newly measured in patent US20250121105A1, “METHODS FOR TREATING CANCER USING COMBINATIONS OF PARP INHIBITORS AND ANTIBODY RADIOCONJUGATES” (ACTINIUM PHARMACEUTICALS, INC., priority 2019, published 2025), which cites them from elsewhere.

Each structure is given as a SMILES string. Like-named read-outs stand apart in the source and are kept apart here.

Data set [1] has as its system PARP.
Data set [2] relates to glioblastoma cancer cells. To be noted: veliparib (ABT-888) plus ionizing radiation (IR).
Setting [3] is: order of magnitude only, stated in the background.

For the compound `Cn1ncnc1[C@H]1c2n[nH]c(=O)c3cc(F)cc(c23)N[C@@H]1c1ccc(F)cc1` [talazoparib], the IC50 values result in data set [1] (setting [3]) is “picomolar range”. On to `C[C@]1(c2nc3c(C(N)=O)cccc3[nH]2)CCCN1` [veliparib], for which the “sensitivity of glioblastoma cancer cells to PARPi with ionizing radiation” value in data set [2] is reported as “IR sensitizes glioblastoma cancer cells to PARPi”. Besides, the IC50 values result in data set [1] is recorded as “nanomolar range”. `CNCc1ccc(-c2[nH]c3cc(F)cc4c3c2CCNC4=O)cc1` [rucaparib]: in data set [1] (setting [3]), the IC50 values result is recorded as “nanomolar range”. On to `NC(=O)c1cccc2cn(-c3ccc([C@@H]4CCCNC4)cc3)nc12` [niraparib], for which, in data set [1] (setting [3]), the IC50 values result is reported as “nanomolar range”.
